Measured values published in article PMC8277899, “A novel RyR1-selective inhibitor prevents and rescues sudden death in mouse models of malignant hyperthermia and heat stroke” (Nature Communications, 2021).
Several values for one entry are separate records, joined by “and”; a condition that tells them apart may be missing. Equal entries are not always repeated. Where two headings read alike, the source gives them in different places.

System: soleus muscles from R2509C mice
Test: Muscle force in vitro, soleus from R2509C mice (caffeine and heat contracture, twitch, tetanus)
Type: cell-based, mouse
Settings: for inhibition at 3 µM: Mus musculus, soleus (WT and R2509C groups)

## CCCCCCCCn1cc(C(=O)O)c(=O)c2cc3c(cc21)OCO3 [Cpd1, 6,7-(methylenedioxy)-1-octyl-4-quinolone-3-carboxylic acid]
At 100 Hz, read-out: inhibition of tetanic contraction force
  inhibition at 3 µM: 35%
read-out: inhibition of twitch contraction force
  inhibition at 3 µM: 72%
R2509C soleus, 3 μM Cpd1, caffeine 20 mM
  increase in basal stress in response to caffeine: 0.5836 and 0.5932 and 0.4496 and 0.3389 and 0.4718
R2509C soleus, pretreatment 3 µM, 20 mM caffeine
  effect on caffeine-induced contracture tension: decreased
R2509C soleus, pretreatment 3 µM, 42 °C
  effect on heat-induced contracture: significantly reduced
